Measured values taken from PubChem BioAssay AID1259407 (Chemical Carcinogenesis Research Information System (CCRIS), 2018).
Activity calls are given as the source filed them. No rule for the calls is given here.

Tested on: CCRIS mutagenicity, Ames/micronucleus/aberration tests
Assay: CCRIS mutagenicity studies
[1] = Test System: AMES SALMONELLA TYPHIMURIUM, Strain/Indicator: TA98, Metabolic Activation: NONE, Method: PREINCUBATION

What does the source list for `OCC(CO)NC1CC(O)(CO)C(O)C(O)C1O` (stereo not drawn)?
mutagenic call (Test System: AMES SALMONELLA TYPHIMURIUM, Strain/Indicator: TA98, Metabolic Activation: NONE): inactive; negative; mutagenic call (Test System: AMES SALMONELLA TYPHIMURIUM, Strain/Indicator: TA98, Metabolic Activation: RAT, LIVER, S-9, SODIUM PHENOBARBITAL AND 5,6-BENZOFLAVONE): inactive; negative; mutagenic call (Test System: AMES SALMONELLA TYPHIMURIUM, Strain/Indicator: TA100, Metabolic Activation: NONE): inactive; negative; mutagenic call (Test System: AMES SALMONELLA TYPHIMURIUM, Strain/Indicator: TA100, Metabolic Activation: RAT, LIVER, S-9, SODIUM PHENOBARBITAL AND 5,6-BENZOFLAVONE): inactive; negative; mutagenic call (Test System: AMES SALMONELLA TYPHIMURIUM, Strain/Indicator: TA1535, Metabolic Activation: NONE): inactive; negative; mutagenic call (Test System: AMES SALMONELLA TYPHIMURIUM, Strain/Indicator: TA1535, Metabolic Activation: RAT, LIVER, S-9, SODIUM PHENOBARBITAL AND 5,6-BENZOFLAVONE): inactive; negative; mutagenic call (Test System: AMES SALMONELLA TYPHIMURIUM, Strain/Indicator: TA1537, Metabolic Activation: NONE): inactive; negative; mutagenic call (Test System: AMES SALMONELLA TYPHIMURIUM, Strain/Indicator: TA1537, Metabolic Activation: RAT, LIVER, S-9, SODIUM PHENOBARBITAL AND 5,6-BENZOFLAVONE): inactive; negative; mutagenic call (Test System: E. COLI, Strain/Indicator: WP2 UVRA, Metabolic Activation: NONE): inactive; negative; mutagenic call (Test System: E. COLI, Strain/Indicator: WP2 UVRA, Metabolic Activation: RAT, LIVER, S-9, SODIUM PHENOBARBITAL AND 5,6-BENZOFLAVONE): inactive; negative

Which mutagenic call [1] does the source give for `CC1=C2C(=CC(C)(C)[C@@H]2O)C(=O)[C@](C)(O)C12CC2` here?
Its mutagenic call is “active; positive”.

With `CN(C)C(=O)Nc1cccc(C(F)(F)F)c1` as the compound, how does the mutagenic call (End Point: IN VITRO CHROMOSOMAL ABERRATIONS, Test System: CHO-LB CELLS, Metabolic Activation: NONE) read?
Its mutagenic call is “inactive; negative”.

And the mutagenic call (End Point: IN VITRO CHROMOSOMAL ABERRATIONS, Test System: CHO-LB CELLS, Metabolic Activation: RAT, LIVER, S-9, AROCLOR 1254)?
The mutagenic call was “inactive; negative”.

What about the mutagenic call (Test System: AMES SALMONELLA TYPHIMURIUM, Strain/Indicator: TA97, Metabolic Activation: HAMSTER, LIVER, S-9, AROCLOR 1254 (10 OR 30%), Method: PREINCUBATION) of the same compound?
Its mutagenic call is “inactive; negative”.

And the mutagenic call (Test System: AMES SALMONELLA TYPHIMURIUM, Strain/Indicator: TA97, Metabolic Activation: NONE, Method: PREINCUBATION)?
The mutagenic call was “inactive; negative”.

And the mutagenic call (Test System: AMES SALMONELLA TYPHIMURIUM, Strain/Indicator: TA97, Metabolic Activation: RAT, LIVER, S-9, AROCLOR 1254 (10 OR 30%), Method: PREINCUBATION)?
The mutagenic call was “inactive; negative”.

What about the mutagenic call (Test System: AMES SALMONELLA TYPHIMURIUM, Strain/Indicator: TA98, Metabolic Activation: HAMSTER, LIVER, S-9, AROCLOR 1254 (10 OR 30%), Method: PREINCUBATION) of the same compound?
Its mutagenic call is “inactive; negative”.

What about the mutagenic call [1] of the same compound?
Its mutagenic call is “inactive; negative”.

What about the mutagenic call (Test System: AMES SALMONELLA TYPHIMURIUM, Strain/Indicator: TA98, Metabolic Activation: RAT, LIVER, S-9, AROCLOR 1254 (10 OR 30%), Method: PREINCUBATION) of the same compound?
The mutagenic call was “inactive; negative”.

And the mutagenic call (Test System: AMES SALMONELLA TYPHIMURIUM, Strain/Indicator: TA100, Metabolic Activation: HAMSTER, LIVER, S-9, AROCLOR 1254 (10 OR 30%), Method: PREINCUBATION)?
Its mutagenic call is “inactive; negative”.

And the mutagenic call (Test System: AMES SALMONELLA TYPHIMURIUM, Strain/Indicator: TA100, Metabolic Activation: NONE, Method: PREINCUBATION)?
The mutagenic call was “inactive; negative”.

What about the mutagenic call (Test System: AMES SALMONELLA TYPHIMURIUM, Strain/Indicator: TA100, Metabolic Activation: RAT, LIVER, S-9, AROCLOR 1254 (10 OR 30%), Method: PREINCUBATION) of the same compound?
Its mutagenic call is “inactive; negative”.

And the mutagenic call (Test System: AMES SALMONELLA TYPHIMURIUM, Strain/Indicator: TA1535, Metabolic Activation: HAMSTER, LIVER, S-9, AROCLOR 1254 (10 OR 30%), Method: PREINCUBATION)?
Its mutagenic call is “inactive; negative”.

What about the mutagenic call (Test System: AMES SALMONELLA TYPHIMURIUM, Strain/Indicator: TA1535, Metabolic Activation: NONE, Method: PREINCUBATION) of the same compound?
The mutagenic call was “inactive; negative”.

What about the mutagenic call (Test System: AMES SALMONELLA TYPHIMURIUM, Strain/Indicator: TA1535, Metabolic Activation: RAT, LIVER, S-9, AROCLOR 1254 (10 OR 30%), Method: PREINCUBATION) of the same compound?
The mutagenic call was “inactive; negative”.

And the mutagenic call (Test System: AMES SALMONELLA TYPHIMURIUM, Strain/Indicator: TA1535, Metabolic Activation: RAT, LIVER, S-9, Method: STANDARD PLATE)?
The mutagenic call was “active; positive”.

And the mutagenic call (Test System: E. COLI, Strain/Indicator: WP2 UVRA, Metabolic Activation: HAMSTER, LIVER, S-9, AROCLOR 1254, Method: STANDARD PLATE)?
Its mutagenic call is “inactive; negative”.

And the mutagenic call (Test System: E. COLI, Strain/Indicator: WP2 UVRA, Metabolic Activation: HAMSTER, LIVER, S-9, Method: STANDARD PLATE)?
Its mutagenic call is “inactive; negative”.

What about the mutagenic call (Test System: E. COLI, Strain/Indicator: WP2 UVRA, Metabolic Activation: MOUSE, LIVER, S-9, AROCLOR 1254, Method: STANDARD PLATE) of the same compound?
The mutagenic call was “inactive; negative”.

And the mutagenic call (Test System: E. COLI, Strain/Indicator: WP2 UVRA, Metabolic Activation: MOUSE, LIVER, S-9, Method: STANDARD PLATE)?
Its mutagenic call is “inactive; negative”.

What about the mutagenic call (Test System: E. COLI, Strain/Indicator: WP2 UVRA, Metabolic Activation: NONE, Method: STANDARD PLATE) of the same compound?
Its mutagenic call is “inactive; negative”.

And the mutagenic call (Test System: E. COLI, Strain/Indicator: WP2 UVRA, Metabolic Activation: RAT, LIVER, S-9, AROCLOR 1254, Method: STANDARD PLATE)?
Its mutagenic call is “inactive; negative”.

What about the mutagenic call (Test System: E. COLI, Strain/Indicator: WP2 UVRA, Metabolic Activation: RAT, LIVER, S-9, Method: STANDARD PLATE) of the same compound?
Its mutagenic call is “inactive; negative”.
